In ChEMBL document CHEMBL1201862, “PubChem BioAssay data set” (2004):
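Step 1: Grow cells in 96-well plates. Step 2: Expose to compound for 48 hours at 5 concentrations. Step 3: Interpolate endpoints linearly; if unreached, use highest concentration. GI50: concentration for 50% inhibition of growth.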 Activity calls are given as the source filed them. Cut-off read from the data, not from the text of the source: active = GI50 up to about 1.1 µM and inactive = higher.

How the values were obtained:
Assay in all cases: NCI tumour cell line growth inhibition, 48 h
[1] = system: DU-145
[2] = system: SW-620
[3] = system: UACC-257
[4] = system: HT-29
[5] = system: TK-10
[6] = system: A549
[7] = system: SK-MEL-5
[8] = system: Hs-578T
[9] = system: HOP-92
[10] = system: RXF 393
[11] = system: SNB-75
[12] = system: BT-549
[13] = system: NCI/ADR-RES
[14] = system: MDA-MB-231
[15] = system: NCI-H23
[16] = system: PC-3
[17] = system: MDA-MB-435

Measured: GI50

C[Si](C)(C)OC1(C#N)c2ccccc2CCCC12CCCC2 (stereo not drawn)
inactive: [1] 61.1 µM | [2] 44.9 µM | [3] 21.4 µM | [4] 27.8 µM | [5] > 100 µM | [6] 34.9 µM | [7] 24.1 µM | [8] 62.1 µM | [9] 29.1 µM | [10] 26.5 µM | [11] 49.8 µM | [12] > 100 µM | [13] 89.5 µM | [14] 50.9 µM | [15] 45.7 µM | [16] 41.1 µM | [17] 44.1 µM

COC(=O)[C@@H](NC(=O)[C@H](N)Cc1ccc(N(CCCl)CCCl)cc1)C(C)C
inactive: [1] 8.57 µM | [2] 11 µM | [3] 6.37 µM | [4] 24.6 µM | [5] 22.4 µM | [6] 18.2 µM | [7] 1.78 µM | [8] 26.2 µM | [9] 1.63 µM | [10] 12 µM | [11] 11.1 µM | [12] 23.4 µM | [13] 12.6 µM | [14] 26.1 µM | [15] 3.66 µM | [16] 21.7 µM | [17] 19 µM

COc1cccc(NC(=O)CC(=O)n2nc(-c3ccccc3)c(/N=N/c3ccc(Cl)cc3)c2-c2ccccc2)c1
inactive: [1] 25.3 µM | [2] 36.1 µM | [3] 24.3 µM | [4] 19.6 µM | [5] 64.1 µM | [6] 26.1 µM | [7] 16.8 µM | [8] 26.2 µM | [9] 18.7 µM | [10] 23 µM | [11] 42.8 µM | [12] 11.8 µM | [13] 19.5 µM | [14] 21.3 µM | [15] 20 µM | [16] 27.9 µM | [17] 38.7 µM

COc1ccc(/C=C2\CC3C4CC=C5C[C@@H](O)CC[C@]5(C)C4CC[C@]3(C)\C2=N\O)cc1OC (stereo partly drawn)
inactive: [1] 26.1 µM | [2] 43.4 µM | [3] 7.94 µM | [4] 9.02 µM | [5] 5.09 µM | [6] 5.2 µM | [7] 4.1 µM | [8] 8.77 µM | [9] 29.2 µM | [10] 7.73 µM | [11] 2.33 µM | [12] 15.1 µM | [13] 9.18 µM | [14] 16.2 µM | [15] 9.71 µM | [16] 6.03 µM | [17] 23.3 µM
